Assay results reported in BindingDB's records for doi:10.1111/cbdd.12801 (2016).

Key:
Settings in all cases: pH 7.4; 25 °C
Adenosine receptor A1 = target: T1, Adenosine receptor A1 (Homo sapiens, UniProt P30542); test: A1 Adenosine Receptor Binding Assay
T1 sequence (P30542 whole entry): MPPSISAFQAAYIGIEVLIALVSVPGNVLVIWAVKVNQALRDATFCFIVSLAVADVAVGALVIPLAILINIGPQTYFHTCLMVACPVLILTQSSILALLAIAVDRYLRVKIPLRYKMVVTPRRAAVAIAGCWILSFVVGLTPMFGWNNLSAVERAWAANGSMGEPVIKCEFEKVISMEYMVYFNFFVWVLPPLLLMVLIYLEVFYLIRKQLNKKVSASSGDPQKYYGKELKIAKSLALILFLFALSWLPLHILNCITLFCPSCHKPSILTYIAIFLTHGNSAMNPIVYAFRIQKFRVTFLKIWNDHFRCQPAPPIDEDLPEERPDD
Description: Aliquots of cell membranes (30 ug proteins) were incubated at 25 °C for 180 min in 500 uL of binding buffer (50 mM Tris-HCl, 2 mM MgCl2, 2 units/mL ADA, pH 7.4) containing [3H]DPCPX (3 nM) and six different concentrations of the tested compounds. Non-specific binding was determined in the presence of 50 µM R-PIA. The dissociation constant (Kd) of [3H]DPCPX in human A1 AR CHO cell membranes was 3 nM.

Adenosine receptor A2a = Adenosine receptor A2a (Homo sapiens, UniProt P29274); test: A2A Adenosine Receptor Binding Assay
Description: (§1) Aliquots of cell membranes (30 ug) were incubated at 25 °C for 90 min in 500 uL of binding buffer (50 mM Tris-HCl, 2 mm MgCl2, 2 units/mL ADA, pH 7.4) in the presence of 30 nM of [3H]NECA and six different concentrations of the tested compounds. Non-specific binding was determined in the presence of 100 uM R-PIA.

Adenosine receptor A3 = target: T2, Adenosine receptor A3 (Homo sapiens, UniProt P0DMS8); test: A3 Adenosine Receptor Binding Assay
T2 sequence (P0DMS8 whole entry): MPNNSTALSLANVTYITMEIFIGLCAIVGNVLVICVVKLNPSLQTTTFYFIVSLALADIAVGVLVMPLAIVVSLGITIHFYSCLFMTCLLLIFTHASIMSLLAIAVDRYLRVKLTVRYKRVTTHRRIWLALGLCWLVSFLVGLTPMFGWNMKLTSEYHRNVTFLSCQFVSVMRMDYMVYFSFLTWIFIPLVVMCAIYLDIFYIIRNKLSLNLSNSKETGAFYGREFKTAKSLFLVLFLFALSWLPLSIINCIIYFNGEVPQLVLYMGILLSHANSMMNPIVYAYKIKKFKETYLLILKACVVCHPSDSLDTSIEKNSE
Description: as §1, with “(90” for “(30”, “180” for “90”, “5 mM” for “2 mm”, “MgCl2, 1 mM EDTA,” for “MgCl2,”, “nm” for “nM of”

Sequence of Adenosine receptor A2a (P29274 whole entry): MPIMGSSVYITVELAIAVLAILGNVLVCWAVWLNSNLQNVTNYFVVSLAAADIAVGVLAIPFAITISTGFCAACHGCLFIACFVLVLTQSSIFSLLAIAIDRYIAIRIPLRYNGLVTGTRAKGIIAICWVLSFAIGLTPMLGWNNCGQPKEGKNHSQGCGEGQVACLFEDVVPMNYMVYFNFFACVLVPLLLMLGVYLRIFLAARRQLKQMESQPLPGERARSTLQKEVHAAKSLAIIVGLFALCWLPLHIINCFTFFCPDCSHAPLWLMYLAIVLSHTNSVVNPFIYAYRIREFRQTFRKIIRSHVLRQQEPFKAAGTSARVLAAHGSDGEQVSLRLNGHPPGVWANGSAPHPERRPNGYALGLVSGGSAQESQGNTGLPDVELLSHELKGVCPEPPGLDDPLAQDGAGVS

| EC50 (Adenosine receptor A1) [µM] | Ki (Adenosine receptor A1) [µM] | Ki (Adenosine receptor A2a) [µM] | Ki (Adenosine receptor A3) [µM] | Structure (SMILES) |
| --- | --- | --- | --- | --- |
| 0.49 | 1.24 | > 10 | > 10 | CCCOc1cc(N)nc(SCc2ccccc2)n1 [4-amino-6-alkyloxy-2-benzylthiopyrimidines (4)] |
| 0.87 | 1.94 | > 10 | > 10 | CC(C)COc1cc(N)nc(SCc2ccccc2)n1 [4-amino-6-alkyloxy-2-benzylthiopyrimidines (5)] |
| – | 1.2 | > 10 | > 10 | Nc1cc(OCc2ccccc2)nc(SCc2ccccc2)n1 [4-amino-6-alkyloxy-2-benzylthiopyrimidines (6)] |
